Data on eleven compounds can be found in ChEMBL document CHEMBL1201862, “PubChem BioAssay data set” (2004).

The source made the active and inactive calls.

For data set [1], the target named is T1, Caspase-3 (Homo sapiens, UniProt P42574).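 Further: Dose-response selectivity test against caspase-3 for candidate inhibitors of sentrin-specific proteases (SENPs).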
T1 sequence (P42574 whole entry): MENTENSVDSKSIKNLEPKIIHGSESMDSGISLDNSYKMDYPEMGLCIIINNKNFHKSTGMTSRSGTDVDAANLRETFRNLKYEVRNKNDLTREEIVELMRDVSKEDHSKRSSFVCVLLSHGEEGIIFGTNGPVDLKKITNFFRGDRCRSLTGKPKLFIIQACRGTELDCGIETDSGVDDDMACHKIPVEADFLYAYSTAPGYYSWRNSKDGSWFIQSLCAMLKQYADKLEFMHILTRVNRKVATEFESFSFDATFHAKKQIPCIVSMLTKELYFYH
The format is functional.

Data set [2] has as its target T2, Sentrin-specific protease 6 (Homo sapiens, UniProt Q9GZR1).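 Further: Luminescence-based dose-response confirmatory assay of SENP6 inhibition, following up an ultra-high-throughput screen.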
T2 sequence (Q9GZR1 whole entry): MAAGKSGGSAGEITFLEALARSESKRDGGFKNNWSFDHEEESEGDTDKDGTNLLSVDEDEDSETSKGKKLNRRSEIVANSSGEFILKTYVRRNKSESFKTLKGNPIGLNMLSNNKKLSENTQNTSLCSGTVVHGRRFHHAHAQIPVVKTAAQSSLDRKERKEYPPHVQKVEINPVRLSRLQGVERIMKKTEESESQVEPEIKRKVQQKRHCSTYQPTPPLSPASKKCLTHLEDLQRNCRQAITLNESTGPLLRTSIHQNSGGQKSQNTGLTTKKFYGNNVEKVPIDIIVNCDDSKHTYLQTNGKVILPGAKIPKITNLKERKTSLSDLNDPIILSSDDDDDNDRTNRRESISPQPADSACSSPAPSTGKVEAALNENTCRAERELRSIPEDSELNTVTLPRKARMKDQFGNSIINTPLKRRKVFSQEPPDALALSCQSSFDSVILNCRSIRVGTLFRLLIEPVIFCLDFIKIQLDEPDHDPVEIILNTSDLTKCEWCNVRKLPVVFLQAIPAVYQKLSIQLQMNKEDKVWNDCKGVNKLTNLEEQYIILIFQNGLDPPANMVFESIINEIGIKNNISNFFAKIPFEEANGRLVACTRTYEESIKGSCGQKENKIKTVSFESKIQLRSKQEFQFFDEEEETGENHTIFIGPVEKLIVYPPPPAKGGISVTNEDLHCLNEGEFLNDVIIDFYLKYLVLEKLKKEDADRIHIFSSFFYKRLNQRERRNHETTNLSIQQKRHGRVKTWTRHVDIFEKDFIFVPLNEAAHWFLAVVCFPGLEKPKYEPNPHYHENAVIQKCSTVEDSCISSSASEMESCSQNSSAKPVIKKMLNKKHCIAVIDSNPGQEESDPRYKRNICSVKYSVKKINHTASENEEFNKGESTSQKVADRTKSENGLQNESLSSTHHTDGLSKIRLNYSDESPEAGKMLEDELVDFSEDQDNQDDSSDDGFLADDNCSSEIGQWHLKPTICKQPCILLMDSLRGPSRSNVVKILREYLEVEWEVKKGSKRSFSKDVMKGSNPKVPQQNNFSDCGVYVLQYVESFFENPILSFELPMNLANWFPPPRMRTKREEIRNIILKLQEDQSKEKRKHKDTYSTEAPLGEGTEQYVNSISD
The format is functional.

Data set [3] addresses T3, Sentrin-specific protease 7 (Homo sapiens, UniProt Q9BQF6).
T3 sequence (Q9BQF6 whole entry): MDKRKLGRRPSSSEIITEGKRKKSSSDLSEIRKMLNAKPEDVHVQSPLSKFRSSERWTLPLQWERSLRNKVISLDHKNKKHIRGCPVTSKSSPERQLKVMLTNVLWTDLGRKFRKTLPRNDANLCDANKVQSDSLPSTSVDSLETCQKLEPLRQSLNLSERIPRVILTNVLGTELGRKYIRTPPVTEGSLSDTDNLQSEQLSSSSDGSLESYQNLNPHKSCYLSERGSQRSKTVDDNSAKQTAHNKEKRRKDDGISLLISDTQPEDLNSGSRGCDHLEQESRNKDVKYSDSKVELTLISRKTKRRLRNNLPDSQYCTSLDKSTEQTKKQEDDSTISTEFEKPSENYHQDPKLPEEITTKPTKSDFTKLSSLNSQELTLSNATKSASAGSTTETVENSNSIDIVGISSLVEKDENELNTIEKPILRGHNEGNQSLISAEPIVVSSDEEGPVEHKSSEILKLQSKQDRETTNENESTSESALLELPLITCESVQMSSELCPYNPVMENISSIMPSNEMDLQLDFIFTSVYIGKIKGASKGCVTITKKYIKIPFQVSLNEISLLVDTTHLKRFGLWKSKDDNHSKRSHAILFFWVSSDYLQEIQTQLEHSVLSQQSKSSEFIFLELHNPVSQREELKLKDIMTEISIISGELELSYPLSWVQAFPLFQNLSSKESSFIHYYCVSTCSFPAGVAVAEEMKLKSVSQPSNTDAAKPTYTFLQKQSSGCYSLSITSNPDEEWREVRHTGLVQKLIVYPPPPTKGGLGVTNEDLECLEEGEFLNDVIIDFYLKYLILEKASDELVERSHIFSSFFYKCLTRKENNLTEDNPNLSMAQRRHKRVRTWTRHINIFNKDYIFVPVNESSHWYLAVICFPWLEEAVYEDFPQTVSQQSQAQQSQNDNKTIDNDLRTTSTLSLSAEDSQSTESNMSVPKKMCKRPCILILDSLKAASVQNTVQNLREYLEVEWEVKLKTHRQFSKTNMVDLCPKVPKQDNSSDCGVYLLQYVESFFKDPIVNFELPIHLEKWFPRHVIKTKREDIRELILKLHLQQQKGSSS
The format is functional.

Data set [4] deals with T4, Sentrin-specific protease 8 (Homo sapiens, UniProt Q96LD8).
T4 sequence (Q96LD8 whole entry): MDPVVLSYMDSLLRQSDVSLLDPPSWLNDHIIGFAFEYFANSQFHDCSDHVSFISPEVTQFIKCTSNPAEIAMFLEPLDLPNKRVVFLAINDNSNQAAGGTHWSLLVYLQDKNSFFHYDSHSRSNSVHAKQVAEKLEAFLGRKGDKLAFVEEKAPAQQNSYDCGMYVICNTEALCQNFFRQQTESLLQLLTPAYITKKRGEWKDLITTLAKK
The format is functional.

Data set [5] in a line: alpha-synuclein stem-loop luciferase translation blockers – H4 neuroglioma cells, luminescence, confirmation (AID 1988). The format is functional, cell-based.
The nature of data set [6]: Luminescence Cell-Based Dose Response HTS to Identify Inhibitors of 5'UTR Stem-Loop Driven Prion Protein mRNA Translation in H4 Neuroglioblastoma Cells. [Related pubchem assays: 1827 (Project Summary), 1813 (Primary HTS)]. The format is functional.
The test system of data set [7] is A-375. Briefly: proliferation inhibition in MITF-low A375 cells – cell-based, cherry-pick samples, set 2, counter-screen for MITF modulator project, dose response (AID 540335). Conditions: Homo sapiens. The format is functional. In general terms: Counterscreens check selectivity or assay interference.
Data set [8] has as its target T5, Microphthalmia-associated transcription factor (Homo sapiens, UniProt O75030).
T5 sequence (O75030 whole entry): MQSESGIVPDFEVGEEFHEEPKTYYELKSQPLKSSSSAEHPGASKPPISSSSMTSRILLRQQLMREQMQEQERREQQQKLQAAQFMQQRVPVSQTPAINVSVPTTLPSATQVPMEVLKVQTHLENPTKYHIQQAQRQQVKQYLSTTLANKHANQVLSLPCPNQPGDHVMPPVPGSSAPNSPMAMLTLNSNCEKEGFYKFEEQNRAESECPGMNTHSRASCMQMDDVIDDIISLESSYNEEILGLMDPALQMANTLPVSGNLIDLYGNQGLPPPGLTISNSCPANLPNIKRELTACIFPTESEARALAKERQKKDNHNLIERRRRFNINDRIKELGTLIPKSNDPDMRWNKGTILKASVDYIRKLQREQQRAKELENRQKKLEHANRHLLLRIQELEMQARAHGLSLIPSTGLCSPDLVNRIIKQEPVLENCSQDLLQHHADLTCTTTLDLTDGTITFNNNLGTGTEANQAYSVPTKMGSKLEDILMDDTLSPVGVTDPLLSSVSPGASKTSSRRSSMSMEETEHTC
Briefly: reducers of TRPM1 reporter luminescence, concentration series – cell-based, SK-MEL-5, cherry-picked, set 3, MITF inhibitor project, dose response (AID 493073).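 Further: SK-MEL-5 melanoma cells with luciferase driven by the MITF target TRPM1 promoter.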 The format is functional.

Data set [9] relates to INS1. The experiment in a line: INS-1E survival protection against cytokine death – cell-based, luminescence, retest, dose response (AID 449756).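 Further: cell death triggered by IL-1 beta plus TNF-alpha plus IFN-gamma mixture; protective hits raise ATP signal compared with cytokine alone wells.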 The format is functional. Conditions: Rattus norvegicus.
Data set [10] in a line: luciferase reporter signal suppression in cells – H4 neuroglioma cells, luminescence, dose response (AID 1990). The format is functional, cell-based. A general note: A reporter such as luciferase makes a cellular process visible.
Data set [11] addresses Cytochrome P450 3A4 (Homo sapiens, UniProt P08684).
For data set [12], the target named is Cytochrome P450 2D6 (Homo sapiens, UniProt P10635).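 Further: CYP2D6 member of a cytochrome P450 panel assay.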
Cytochrome P450 2D6, sequence (P10635 whole entry): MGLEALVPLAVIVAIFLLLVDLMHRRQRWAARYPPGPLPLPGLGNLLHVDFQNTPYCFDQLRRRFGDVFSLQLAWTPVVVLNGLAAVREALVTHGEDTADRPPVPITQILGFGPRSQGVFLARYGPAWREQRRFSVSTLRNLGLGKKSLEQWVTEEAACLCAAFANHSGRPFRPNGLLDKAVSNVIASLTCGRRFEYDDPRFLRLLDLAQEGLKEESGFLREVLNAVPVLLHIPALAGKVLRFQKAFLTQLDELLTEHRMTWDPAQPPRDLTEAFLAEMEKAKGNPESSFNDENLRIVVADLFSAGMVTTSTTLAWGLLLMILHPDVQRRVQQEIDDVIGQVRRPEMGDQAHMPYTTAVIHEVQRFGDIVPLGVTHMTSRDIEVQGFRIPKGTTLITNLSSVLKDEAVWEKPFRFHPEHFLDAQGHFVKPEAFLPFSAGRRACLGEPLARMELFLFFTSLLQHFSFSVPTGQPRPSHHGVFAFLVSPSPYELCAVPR
In data set [13] the target is Cytochrome P450 2C19 (Homo sapiens, UniProt P33261). The experiment in a line: Cytochrome panel assay with activity outcomes. Panel member name: p450-cyp2c19 Compounds with AC50 equal or less than 10 uM are considered active. The format is functional. The following applies: read-out: AC50.
Cytochrome P450 2C19, sequence (P33261 whole entry): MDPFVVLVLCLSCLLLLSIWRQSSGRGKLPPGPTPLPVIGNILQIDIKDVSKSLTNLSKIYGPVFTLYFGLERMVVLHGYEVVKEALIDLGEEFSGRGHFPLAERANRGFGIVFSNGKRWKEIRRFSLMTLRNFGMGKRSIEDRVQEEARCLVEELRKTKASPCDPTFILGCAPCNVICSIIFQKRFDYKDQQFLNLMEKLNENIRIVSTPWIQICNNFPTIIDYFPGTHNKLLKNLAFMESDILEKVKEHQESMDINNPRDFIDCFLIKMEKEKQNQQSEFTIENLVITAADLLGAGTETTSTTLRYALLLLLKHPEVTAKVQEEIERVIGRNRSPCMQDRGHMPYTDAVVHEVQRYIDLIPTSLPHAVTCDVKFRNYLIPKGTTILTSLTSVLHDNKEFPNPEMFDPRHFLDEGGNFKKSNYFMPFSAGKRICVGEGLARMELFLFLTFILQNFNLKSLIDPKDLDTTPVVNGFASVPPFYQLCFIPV
Data set [14] has as its target Cytochrome P450 2C9 (Homo sapiens, UniProt P11712).
Data set [15] is described as follows: Luminescence Cell-Based Dose Retest to Confirm Inhibitors of Cancer Stem Cells. [Related pubchem assays (depositor defined):AID2717, AID2721]. The format is functional. The following applies: Homo sapiens.
A short description of data set [16]: decrease of insulin promoter-GFP reporter – imaging, high-content screening, mouse beta cells (AID 1628). Conditions: MIN6. The format is functional.
Data set [17] can be described thus: MIN6 cell viability loss – mouse insulinoma, cytotoxicity control, dose response (AID 2122).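 Further: confirmatory high-throughput counterscreen run to flag cytotoxic compounds.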 The format is functional.
For data set [18], the target named is T6, Protein skinhead-1 (Caenorhabditis elegans, UniProt P34707).
T6 sequence (P34707 whole entry): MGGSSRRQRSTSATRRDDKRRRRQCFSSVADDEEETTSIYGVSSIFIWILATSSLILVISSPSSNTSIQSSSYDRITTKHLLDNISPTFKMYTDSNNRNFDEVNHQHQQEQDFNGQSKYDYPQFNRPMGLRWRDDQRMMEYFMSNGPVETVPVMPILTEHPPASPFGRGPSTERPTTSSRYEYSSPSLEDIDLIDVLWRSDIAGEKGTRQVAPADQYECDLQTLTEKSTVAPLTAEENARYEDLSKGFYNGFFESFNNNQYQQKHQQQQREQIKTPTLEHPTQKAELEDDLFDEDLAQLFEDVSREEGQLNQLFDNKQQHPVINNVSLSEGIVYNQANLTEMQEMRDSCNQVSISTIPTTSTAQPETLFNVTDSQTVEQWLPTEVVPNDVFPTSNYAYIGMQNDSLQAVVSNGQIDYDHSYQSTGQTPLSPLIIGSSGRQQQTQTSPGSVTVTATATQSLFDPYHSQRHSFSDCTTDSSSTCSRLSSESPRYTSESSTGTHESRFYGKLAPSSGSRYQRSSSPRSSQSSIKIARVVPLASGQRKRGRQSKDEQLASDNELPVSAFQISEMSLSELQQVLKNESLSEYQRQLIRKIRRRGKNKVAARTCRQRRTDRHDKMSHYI
The format is functional.

The target of data set [19] is SUMO E1/E2 (Homo sapiens, UniProt P63279+Q9UBE0+Q9UBT2). Briefly: SAR analysis of SUMOylation using HTRF in an in-Vitro dose response assay. [Related pubchem assays (depositor defined):AID2006, AID2011, AID2018, AID2069, AID2658]. The format is functional. In general terms: In TR-FRET formats the signal depends on donor and acceptor labels being close together.
SUMO E1/E2, sequence (Q9UBE0 whole entry): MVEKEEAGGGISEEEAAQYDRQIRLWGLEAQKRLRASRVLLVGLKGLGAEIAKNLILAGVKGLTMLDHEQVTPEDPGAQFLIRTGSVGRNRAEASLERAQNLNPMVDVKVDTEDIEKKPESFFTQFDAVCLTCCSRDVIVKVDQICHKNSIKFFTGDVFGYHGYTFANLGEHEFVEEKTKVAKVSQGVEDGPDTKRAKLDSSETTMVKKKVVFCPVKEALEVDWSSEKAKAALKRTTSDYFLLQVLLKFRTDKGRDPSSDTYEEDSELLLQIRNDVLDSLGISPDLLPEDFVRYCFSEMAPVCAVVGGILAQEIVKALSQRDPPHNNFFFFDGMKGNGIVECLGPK
SUMO E1/E2, sequence (Q9UBT2 whole entry): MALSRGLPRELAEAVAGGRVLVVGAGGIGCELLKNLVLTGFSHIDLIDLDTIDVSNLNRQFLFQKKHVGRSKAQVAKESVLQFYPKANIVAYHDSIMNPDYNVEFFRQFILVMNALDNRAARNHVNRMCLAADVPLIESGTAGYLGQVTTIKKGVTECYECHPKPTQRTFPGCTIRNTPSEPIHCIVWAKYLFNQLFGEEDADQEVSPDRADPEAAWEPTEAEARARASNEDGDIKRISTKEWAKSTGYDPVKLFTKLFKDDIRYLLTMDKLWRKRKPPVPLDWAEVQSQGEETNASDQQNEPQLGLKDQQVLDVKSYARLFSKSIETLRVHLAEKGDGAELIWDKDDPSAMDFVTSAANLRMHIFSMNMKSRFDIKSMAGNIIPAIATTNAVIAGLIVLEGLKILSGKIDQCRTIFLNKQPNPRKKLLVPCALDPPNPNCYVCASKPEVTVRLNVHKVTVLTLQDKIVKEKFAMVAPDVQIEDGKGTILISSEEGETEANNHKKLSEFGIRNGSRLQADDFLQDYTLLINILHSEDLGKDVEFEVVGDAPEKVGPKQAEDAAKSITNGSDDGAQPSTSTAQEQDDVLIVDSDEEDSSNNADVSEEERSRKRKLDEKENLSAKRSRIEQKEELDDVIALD
SUMO E1/E2, sequence (P63279 whole entry): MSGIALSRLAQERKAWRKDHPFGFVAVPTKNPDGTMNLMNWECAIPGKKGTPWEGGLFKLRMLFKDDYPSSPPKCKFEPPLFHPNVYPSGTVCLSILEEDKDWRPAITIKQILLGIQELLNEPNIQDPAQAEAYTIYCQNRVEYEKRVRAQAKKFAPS

Cytochrome P450 3A4, sequence (P08684 whole entry): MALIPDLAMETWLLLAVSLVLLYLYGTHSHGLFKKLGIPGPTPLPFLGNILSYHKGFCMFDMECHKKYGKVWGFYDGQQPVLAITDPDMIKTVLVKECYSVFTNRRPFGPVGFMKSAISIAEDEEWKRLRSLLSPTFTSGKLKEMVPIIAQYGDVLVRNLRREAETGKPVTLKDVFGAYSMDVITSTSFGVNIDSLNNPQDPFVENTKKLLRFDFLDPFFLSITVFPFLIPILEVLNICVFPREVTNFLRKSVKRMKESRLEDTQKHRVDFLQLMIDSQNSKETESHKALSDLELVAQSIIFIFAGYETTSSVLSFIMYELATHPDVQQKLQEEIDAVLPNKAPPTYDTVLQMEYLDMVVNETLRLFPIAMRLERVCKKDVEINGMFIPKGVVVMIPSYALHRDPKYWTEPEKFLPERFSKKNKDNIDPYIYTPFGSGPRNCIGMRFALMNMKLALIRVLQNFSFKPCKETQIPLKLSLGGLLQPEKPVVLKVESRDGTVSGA
Cytochrome P450 2C9, sequence (P11712 whole entry): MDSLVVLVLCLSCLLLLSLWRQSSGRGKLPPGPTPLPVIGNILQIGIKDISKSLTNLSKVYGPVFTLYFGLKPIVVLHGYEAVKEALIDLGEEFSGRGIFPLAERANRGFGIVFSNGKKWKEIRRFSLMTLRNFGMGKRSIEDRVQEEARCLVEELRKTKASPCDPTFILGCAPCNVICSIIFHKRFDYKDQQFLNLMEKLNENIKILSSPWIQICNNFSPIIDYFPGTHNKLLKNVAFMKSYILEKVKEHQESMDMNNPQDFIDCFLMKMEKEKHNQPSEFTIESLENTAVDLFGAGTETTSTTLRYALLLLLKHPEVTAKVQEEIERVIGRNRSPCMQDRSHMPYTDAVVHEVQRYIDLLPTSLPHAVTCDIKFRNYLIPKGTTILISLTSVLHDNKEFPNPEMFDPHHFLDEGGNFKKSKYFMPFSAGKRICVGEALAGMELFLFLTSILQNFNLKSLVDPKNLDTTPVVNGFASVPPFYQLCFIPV

As to `CCOC(=O)c1sc(-c2ccc(OC)cc2)cc1N`, the IC50 in [1] is 37.5 µM (active); in data set [2], 12.1 µM (active); in [3] it was 7.33 µM (active); in data set [4] it was 10.7 µM (active).
Take `Cc1nnc2nc(SCC(=O)NCCC3=CCCCC3)n(-c3ccc(Br)cc3)c(N)c1-2`: the EC50 in data set [5] was 8.54 µM (active); in data set [6] it was 15.4 µM (active); in [10], 9.9 µM (active). In addition, the figures for the half-maximal activity concentration (AC50) in [7], in data set [8] and in [9] were 26.9 µM (active), 2.46 µM (active) and 5.09 µM (active), respectively.
Regarding `COC(=O)[C@H]1[C@@H](c2ccccc2)[C@@]2(c3ccccc3)Oc3ccccc3[C@@]1(O)[C@@H]2O`, the results for the AC50 in [11], in data set [12] and in data set [13] were 3.16 µM (inconclusive), “inconclusive” and 3.98 µM (inconclusive), respectively.
For `Cc1ccc(N=C(S)N2CCN(C(=O)C3CCCO3)CC2)c(C)c1` (stereo unspecified), the AC50 in data set [11] is 22.4 µM (inconclusive); in data set [14], “inconclusive”; in [12], “inconclusive”.
Take `CC(=O)c1c(C)oc2c1C(=O)c1ccccc1C2=O`: the AC50 is 41.3 µM (active) in [7], 6.68 µM (active) in [8], 4.35 µM (active) in [9] and 3.93 µM (active) in data set [15].
Take `C/C(=N\NC(=O)COc1ccc([N+](=O)[O-])cc1)C(C)(C)C`: the results for the AC50 in [11] and in data set [12] were 28.2 µM (inconclusive) and “inconclusive”, respectively.
On to `CC(C)(C)NC(=O)COc1ccc(-c2ccccc2)cc1`, for which the 50% inhibitory concentration (IC50) was 24.6 µM (active) in data set [1], 52.6 µM (active) in data set [2], 12.3 µM (active) in data set [3] and 70.7 µM (active) in data set [4].
With `CNS(=O)(=O)c1cccc(C(=O)OCC(=O)/C=C2/N(C)c3ccccc3C2(C)C)c1`, the IC50 in data set [16] is 2.64 µM (active); in data set [17] it was 1.64 µM (active).
In the case of `FC(F)(F)c1ccnc(Oc2ccc(C3=NCCS3)cc2)c1`, the IC50 in data set [1] is 11.5 µM (active); in data set [2], 4.94 µM (active); in data set [3], 2.36 µM (active); in data set [18] it was 94.5 µM (inactive); in data set [4], 5.09 µM (active).
With `O=C(Nc1ccc(Nc2ccncc2)cc1)c1ccc([N+](=O)[O-])cc1`, the AC50 is 33.1 µM (active) in data set [7] and 7.22 µM (active) in data set [8].
On to `COc1cc(-c2n[nH]c(=S)n2/N=C/c2cccn2C)cc(OC)c1OC`, for which, in [19], the IC50 is > 100 µM (inactive).

Usually IC50 stands for the point on the concentration scale where inhibition reaches its midpoint. Usually EC50 stands for the concentration at which the effect is half-maximal. The term AC50 denotes the concentration giving half of the maximal activity seen.
